Measured values published in PubChem BioAssay (NCI).
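Five concentrations, 48 hours, 96-well plates. GI50 marks 50% less growth. At the TGI there is no net growth.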

How the values were obtained:
Assay in all cases: DTP human tumour cell line panel, 48 h
[1] = tested on: 786-0 renal
[2] = tested on: A498 renal
[3] = tested on: A549 NSCLC
[4] = tested on: ACHN renal
[5] = tested on: BT-549 breast
[6] = tested on: CAKI-1 renal
[7] = tested on: CCRF-CEM leukemia
[8] = tested on: COLO 205 colon
[9] = tested on: DU-145 prostate
[10] = tested on: EKVX NSCLC
[11] = tested on: HCC-2998 colon
[12] = tested on: HCT-116 colon
[13] = tested on: HCT-15 colon
[14] = tested on: HL-60(TB) leukemia
[15] = tested on: HOP-62 NSCLC
[16] = tested on: HOP-92 NSCLC
[17] = tested on: HS 578T breast
[18] = tested on: HT29 colon
[19] = tested on: IGROV1 ovarian
[20] = tested on: K-562 leukemia
[21] = tested on: KM12 colon
[22] = tested on: LOX IMVI melanoma
[23] = tested on: M14 melanoma
[24] = tested on: MALME-3M melanoma
[25] = tested on: MCF7 breast
[26] = tested on: MDA-MB-231 breast
[27] = tested on: MDA-MB-435
[28] = tested on: MDA-MB-468 breast
[29] = tested on: NCI-H226 lung
[30] = tested on: NCI-H23 lung
[31] = tested on: NCI-H522 lung
[32] = tested on: NCI/ADR-RES ovarian
[33] = tested on: OVCAR-3 ovarian
[34] = tested on: OVCAR-4 ovarian
[35] = tested on: OVCAR-5 ovarian
[36] = tested on: OVCAR-8 ovarian
[37] = tested on: PC-3 prostate
[38] = tested on: RPMI-8226 leukemia
[39] = tested on: RXF 393 renal
[40] = tested on: SF-268 CNS
[41] = tested on: SF-295 CNS
[42] = tested on: SF-539 CNS
[43] = tested on: SK-MEL-2 melanoma
[44] = tested on: SK-MEL-28 melanoma
[45] = tested on: SK-MEL-5 melanoma
[46] = tested on: SK-OV-3 ovarian
[47] = tested on: SN12C renal
[48] = tested on: SNB-19 CNS
[49] = tested on: SNB-75 CNS
[50] = tested on: T-47D breast
[51] = tested on: TK-10 renal
[52] = tested on: U251 CNS
[53] = tested on: UACC-257 melanoma
[54] = tested on: UACC-62 melanoma
[55] = tested on: UO-31 renal

Cn1cc(-c2cc(N)n3nc(-c4c[nH]c5ccccc45)cc3n2)c2cc(Br)cnc21
GI50 [1]: 1.81 µM
TGI [1]: 3.45 µM
GI50 [2]: 4.9 µM
TGI [2]: 19.1 µM
GI50 [3]: 2.78 µM
TGI [3]: 11.1 µM
GI50 [4]: 2.17 µM
TGI [4]: 6.21 µM
GI50 [5]: 4.1 µM
TGI [5]: 18 µM
GI50 [6]: 1.69 µM
TGI [6]: 3.87 µM
GI50 [7]: 3.71 µM
TGI [7]: > 100 µM
GI50 [8]: 1.96 µM
TGI [8]: 3.59 µM
GI50 [9]: 3.58 µM
TGI [9]: 12.2 µM
GI50 [10]: 3.14 µM
TGI [10]: 13.7 µM
GI50 [11]: 1.65 µM
TGI [11]: 3.08 µM
GI50 [12]: 1.82 µM
TGI [12]: 3.39 µM
GI50 [13]: 1.7 µM
TGI [13]: 3.51 µM
GI50 [14]: 2.01 µM
TGI [14]: 4.67 µM
GI50 [15]: 2.12 µM
TGI [15]: 5.44 µM
GI50 [16]: 1.65 µM
TGI [16]: 3.44 µM
GI50 [17]: 2.61 µM
TGI [17]: 14.9 µM
GI50 [18]: 1.8 µM
TGI [18]: 3.61 µM
GI50 [19]: 3.29 µM
TGI [19]: 13.2 µM
GI50 [20]: 2.88 µM
TGI [20]: > 100 µM
GI50 [21]: 1.79 µM
TGI [21]: 3.98 µM
GI50 [22]: 1.64 µM
TGI [22]: 2.99 µM
GI50 [23]: 1.91 µM
TGI [23]: 3.87 µM
GI50 [24]: 2.14 µM
TGI [24]: 4.52 µM
GI50 [25]: 1.95 µM
TGI [25]: 4.58 µM
GI50 [26]: 1.79 µM
TGI [26]: 3.91 µM
GI50 [27]: 1.93 µM
TGI [27]: 3.96 µM
GI50 [28]: 2.23 µM
TGI [28]: 5.42 µM
GI50 [29]: 3.29 µM
TGI [29]: 16.3 µM
GI50 [30]: 1.87 µM
TGI [30]: 4.16 µM
GI50 [31]: 1.84 µM
TGI [31]: 3.67 µM
GI50 [32]: 2.21 µM
TGI [32]: 5.16 µM
GI50 [33]: 1.74 µM
TGI [33]: 3.37 µM
GI50 [34]: 2.7 µM
TGI [34]: 9.4 µM
GI50 [35]: 1.82 µM
TGI [35]: 4.94 µM
GI50 [36]: 3.22 µM
TGI [36]: 15.2 µM
GI50 [37]: 2.41 µM
TGI [37]: 7.91 µM
GI50 [38]: 3.07 µM
TGI [38]: 10.5 µM
GI50 [39]: 2.54 µM
TGI [39]: 6.15 µM
GI50 [40]: 2.42 µM
TGI [40]: 7.66 µM
GI50 [41]: 1.81 µM
TGI [41]: 3.87 µM
GI50 [42]: 1.67 µM
TGI [42]: 3.11 µM
GI50 [43]: 1.99 µM
TGI [43]: 4.48 µM
GI50 [44]: 2.18 µM
TGI [44]: 5.6 µM
GI50 [45]: 3.46 µM
TGI [45]: 13.9 µM
GI50 [46]: 5.91 µM
TGI [46]: 34.8 µM
GI50 [47]: 5.02 µM
TGI [47]: 21.1 µM
GI50 [48]: 2.76 µM
TGI [48]: 8.76 µM
GI50 [49]: 1.7 µM
TGI [49]: 17.1 µM
GI50 [50]: 3.22 µM
TGI [50]: 14.3 µM
GI50 [51]: 2.69 µM
TGI [51]: 6.3 µM
GI50 [52]: 2.02 µM
TGI [52]: 4.53 µM
GI50 [53]: 3.5 µM
TGI [53]: 18.4 µM
GI50 [54]: 1.66 µM
TGI [54]: 3.28 µM
GI50 [55]: 2.48 µM
TGI [55]: 10.6 µM

Cc1ccc(-c2cc3nc(-c4ccccc4)nc(C(Cl)Cl)n3n2)cc1
GI50 [28]: 0.383 µM
TGI [28]: 1.31 µM

Cc1cc(O)cc(C)c1/C=C/c1cncc(C(=O)N(C)C)c1
GI50 [28]: > 25 µM
TGI [28]: > 25 µM

OC1CCC(Oc2cccc3cnc(Nc4ccc5nc[nH]c5c4)nc23)CC1 (configuration not stated)
GI50 [28]: 0.327 µM
TGI [28]: 1.37 µM

CC/C=C\C[C@H](O)C/C=C1/C(=O)C=C[C@@H]1C/C=C\CCCC(N)=O
GI50 [28]: 1.12 µM
TGI [28]: 2.86 µM

COc1cccc(C2c3cc4c(cc3OC(N3CCOCC3)C2C)OCO4)c1O (configuration not stated)
GI50 [28]: 4.26 µM
TGI [28]: > 100 µM

CC1=CC[C@@H]2C(C)(C)[C@@H](O)CC[C@@]2(C)[C@@H]1COc1ccc2ccc(=O)oc2c1
GI50 [28]: 3.11 µM
TGI [28]: 15 µM
